pIC50: −log10 of the molar value. Peptide text beside a SMILES is read from it.
What was measured:
human donor PBMCs = experiment: In vitro immunogenicity protocol (IVIP) naïve T-cell assay, IFNγ FluoroSpot; assay type: cell-based; details: individual full-length peptides at 20 μg/mL, 14 days, then 48 h IFNγ FluoroSpot; 16 donors; positive: SFC > 50 per 10^6, SI ≥ 2, p < 0.05 vs medium
Protocol: To improve the sensitivity of the T-cell assays, fresh (not frozen) blood samples were obtained from human blood donors for the T-cell assays (internal observations). Specifically, PBMCs were isolated from leukocyte reduction filters obtained from the Rhode Island Blood Center (RIBC) in Providence, RI. To confirm the sufficient breadth of HLA coverage in the donor cohort, high-resolution (4-digit) class II HLA haplotyping of donors was performed at the Transplant Immunology Laboratory at Hartford Hospital in Hartford, CT, using the sequence-specific oligonucleotide method (SSP-PCR). […] supertype alleles were expressed by the donor PBMCs used in the assays reported here (HLA DRB1*0301, *0401, *0701, *1101, *1301, and *1501). The HLA identified for the cohort of subjects used in this study is representative of 81.81% of the HLA alleles expressed by the global population. Forty percent of the donors were female and 60% of the donors were male, and their ages ranged from 17 to 83 years. Donor cohort demographic information and HLA types for each donor are provided in Supplementary Figure S1. To measure the naïve T-cell response to salmon calcitonin and impurity peptides, cells were plated at a density of 2.5 × 10^5 cells per well in 96-well U-bottom cell plates in RPMI 1640 cell culture medium supplemented with IL-2 (10 ng/mL) and IL-7 (20 ng/mL) (Gibco). The cells were incubated with […]®, or a synthetic salmon calcitonin peptide, or individual peptide impurities, at a concentration of 20 μg/mL for 14 days at 37°C/5% CO2, with medium exchanges that include cytokine support (IL-2 and IL-7) on days 4, 7, and 11. A concentration of 20 μg/mL (5.8 μM) was the dose selected for the SCT API and the four selected impurities, following a dose-ranging study performed with […]® to determine the maximum dose at which a T-cell response could be observed with no observed toxicity to the cells. The dose-ranging study was performed following the same protocol as described above. The following control antigens were used in the T-cell assays for each of the PBMC samples: positive controls, keyhole limpet hemocyanin (KLH; Thermo Fisher), and the antigenic peptide pool CEFT (ImmunoSpot). In addition, human serum albumin (HSA; Sigma-Aldrich) was used as a negative control antigen, and phytohemagglutinin (PHA; Thermo Fisher), a T-cell mitogen, was used to confirm T-cell functionality. […] Responses were considered positive if (1) the number of spots was at least twice the background (stimulation index [SI] ≥ 2); (2) there were greater than 50 spot-forming cells (SFCs) per 1.0 × 10^6 PBMCs; and (3) responses were statistically different from the media (Student's t-test). Each of the test articles (SCT API, RLD, or impurity peptide) and each of the positive and negative controls were evaluated in nine replicate wells containing donor PBMCs. Following the 14-day incubation, cells in the nine replicate wells were collected, pooled by the treatment condition, and re-plated in triplicate on a precoated anti-human IFNγ FluoroSpot plate (Mabtech) at a concentration of 1.0 × 10^5 cells per well in the presence of an appropriate test article or control reagent in supplemented RPMI 1640 culture medium. The FluoroSpot plates were incubated for 48 h at 37°C/5% CO2. After 48 h, FluoroSpot plates were developed according to the manufacturer's directions. Spots were counted on an iSpot Spectrum FluoroSpot reading system (AID, Strassberg, Germany) using software 7.0, build 14790. Fluorophore-specific spot parameters were defined using the spot size, spot intensity, and spot gradient. A spot separation algorithm was applied for optimal spot detection. Analysis and counting of spots were performed by unbiased experts at ZellNet Consulting, Inc. (Fort Lee, NJ).

[1] = greater than human calcitonin; ref Epand et al., 1983; Lee et al., 2011; Andreassen et al., 2014; cited from earlier work
Excerpt: Despite the risk of immunogenicity, SCT is preferred for therapeutic use over human calcitonin due to its 50-fold greater potency in vivo. Increased potency is attributed to the ability of the peptide to adopt an α-helical structure and bind to the human calcitonin receptor with a greater, and nearly irreversible, affinity relative to the human homolog ([Epand et al., 1983]; [Lee et al., 2011]; [Andreassen et al., 2014]).

[2] = of those who develop ADAs; ref LEVY et al., 1988; Grauer et al., 1995; cited from earlier work
Excerpt: In this case study, we describe an exercise to assess the immunogenicity risk of generic peptide impurities that were identified in salmon calcitonin (SCT). SCT is a peptide drug currently under development for the generic market by several manufacturers. Salmon calcitonin is a 32-amino acid peptide drug approved in the United States for the treatment of postmenopausal osteoporosis, Paget’s disease, and hypercalcemia. Salmon calcitonin shares only 50% amino acid sequence homology with human calcitonin (Figure 1), and despite its therapeutic benefits, in clinical trials, 40%–70% of patients tre ...

HLA DRB1*0701 = HLA DRB1*0701 (Homo sapiens, UniProt P01903+P01911, A100R/A102G/A103Q/D57E/D86V/E43K/F76Y/K127E/L162R/M171V/P40G/Q125H/Q99D/R33Q/R42Y/R54Q/S133A/S66F/T210M/V115G/Y107V/Y59L/Y89S); experiment: Class II HLA competition binding assay; details: short assay peptides (Cys7 replaced with Ser); competition with biotinylated allele-specific peptide, soluble HLA DR, overnight, time-resolved fluorescence, triplicate, seven concentrations
Protocol: (§1) The class II HLA binding assays performed for these studies measure the binding affinity of a target peptide to HLA DRB1*0101, *0301, *0401, *0701, *0901, *1101, *1301, and *1501 in a standardized competition assay. This assay was originally described by [Steere et al. (2006)] and adapted by EpiVax. Previous publications have described the assay in detail ([McMurry et al., 2007]; [Ardito et al., 2011]). Briefly, unlabeled test peptides are incubated overnight to equilibrium with a soluble HLA DR molecule (Benaroya Research Institute, Seattle, Washington) and a biotinylated, allele-specific competitor peptide. The binding reaction is then neutralized, and peptide–HLA complexes are transferred to a 96-well plate coated with the pan-HLA DR antibody, clone L243 (BioLegend), and incubated overnight. The following day, Europium-labeled streptavidin (PerkinElmer, Waltham, MA) is added to identify the peptide–HLA complexes. An indirect measure of binding is determined by time-resolved fluorescence. Each peptide–HLA binding reaction is evaluated in triplicate over a range of seven concentrations. The percent inhibition values at seven distinct concentrations are used to calculate the IC50 value, defined as the concentration at which the test peptide inhibits 50% of the labeled competitor peptide.
(§2) Peptides that bind to the HLA at an IC50 value of 100 nM or less are considered very high-affinity binders. Peptides that bind at IC50 values ranging from 100 nM to 1,000 nM are considered high-affinity binders. Peptides that bind at IC50 values ranging from 1,000 nM to 10,000 nM are considered moderate-affinity binders. Peptides that bind at IC50 values ranging from 10,000 nM to 100,000 nM are considered low-affinity binders, and those with IC50 values ranging from 100,000 nM to 1,000,000 nM are considered negligible-affinity binders. […] We note that these concentrations are specific for the in vitro HLA-binding assay and are used to compare the relative binding affinities of the impurity sequences to the API and independent from the peptide concentrations described for the in vitro T-cell assays described below.

HLA DRB1*0901 = HLA DRB1*0901 (Homo sapiens, UniProt P01903+P01911, A100R/A103E/D57H/D86V/F55Y/F60I/F76Y/I96F/K127E/L162R/M171V/P40D/Q125H/Q99R/R33Q/R42F/S133A/S66N/T210M/V115G/W38K/Y107V/Y59G/Y89S); experiment: Class II HLA competition binding assay; details: short assay peptides (Cys7 replaced with Ser); competition with biotinylated allele-specific peptide, soluble HLA DR, overnight, time-resolved fluorescence, triplicate, seven concentrations
Protocol: as §1, §2

HLA DRB1*1501 = molecular target: T1, HLA DRB1*1501 (Homo sapiens, UniProt P01903+P01911); experiment: Class II HLA competition binding assay; details: short assay peptides (Cys7 replaced with Ser); competition with biotinylated allele-specific peptide, soluble HLA DR, overnight, time-resolved fluorescence, triplicate, seven concentrations; unit inferred
T1 construct: incubated overnight to equilibrium with a soluble HLA DR molecule; purchased Benaroya Research Institute, Seattle, Washington
Protocol: as §1, §2

HLA DRB1*0301 = molecular target: T2, HLA DRB1*0301 (Homo sapiens, UniProt P01903+P01911, A100K/A102G/A103R/A169T/F55Y/I96L/K41T/L162R/M171V/P40S/Q125H/Q178H/Q39Y/R42S/S66N/T106N/T262R/W38E/Y61H); experiment: Class II HLA competition binding assay; details: short assay peptides (Cys7 replaced with Ser); competition with biotinylated allele-specific peptide, soluble HLA DR, overnight, time-resolved fluorescence, triplicate, seven concentrations; unit inferred
T2 construct: incubated overnight to equilibrium with a soluble HLA DR molecule; purchased Benaroya Research Institute, Seattle, Washington
Protocol: as §1, §2

HLA DRB1*1101 = molecular target: T3, HLA DRB1*1101 (Homo sapiens, UniProt P01903+P01911, A100R/A169T/A87E/I96F/K41T/L162R/M171V/P40S/Q125H/Q178H/Q39Y/Q99D/R42S/S66Y/T262R/V115G/W38E); experiment: Class II HLA competition binding assay; details: short assay peptides (Cys7 replaced with Ser); competition with biotinylated allele-specific peptide, soluble HLA DR, overnight, time-resolved fluorescence, triplicate, seven concentrations; unit inferred
T3 construct: incubated overnight to equilibrium with a soluble HLA DR molecule; purchased Benaroya Research Institute, Seattle, Washington
Protocol: as §1, §2

HLA DRB1*0101 = molecular target: T4, HLA DRB1*0101 (Homo sapiens, UniProt P01903+P01911, A100R/D57E/F55L/F60I/F76Y/I96L/L162R/M171V/P40L/Q125E/R42F/V115G/Y59C); experiment: Class II HLA competition binding assay; details: short assay peptides (Cys7 replaced with Ser); competition with biotinylated allele-specific peptide, soluble HLA DR, overnight, time-resolved fluorescence, triplicate, seven concentrations; unit inferred
T4 construct: incubated overnight to equilibrium with a soluble HLA DR molecule; purchased Benaroya Research Institute, Seattle, Washington
Protocol: as §1, §2

HLA DRB1*1301 = molecular target: T5, HLA DRB1*1301 (Homo sapiens, UniProt P01903+P01911, A100E/A169T/K41T/L162R/M171V/P40S/Q125H/Q178H/Q39Y/Q99D/R42S/S66N/T262R/W38E/Y61H); experiment: Class II HLA competition binding assay; details: short assay peptides (Cys7 replaced with Ser); competition with biotinylated allele-specific peptide, soluble HLA DR, overnight, time-resolved fluorescence, triplicate, seven concentrations; unit inferred
T5 construct: incubated overnight to equilibrium with a soluble HLA DR molecule; purchased Benaroya Research Institute, Seattle, Washington
Protocol: as §1, §2

HLA DRB1*0401 = molecular target: T6, HLA DRB1*0401 (Homo sapiens, UniProt P01903+P01911, A100K/A169T/F76Y/I96L/K127E/L162R/M171V/N62H/P40V/Q125Y/R42H/S133A/S149N/S66Y/V115G/V209L/W38E); experiment: Class II HLA competition binding assay; details: short assay peptides (Cys7 replaced with Ser); competition with biotinylated allele-specific peptide, soluble HLA DR, overnight, time-resolved fluorescence, triplicate, seven concentrations
T6 construct: incubated overnight to equilibrium with a soluble HLA DR molecule; purchased Benaroya Research Institute, Seattle, Washington
Protocol: as §1, §2

CSNLSTCVLGKLSQELHKLQTYPRTNTGSGTP (disulfide) [SCT API, salmon calcitonin, 32-amino acid peptide drug, disulfide Cys1-Cys7, C-terminus amidated]
Percentage of Responding Donors (human donor PBMCs): 44% | Responding Donors (human donor PBMCs): 7 | potency in vivo relative to human calcitonin [1]: 50 fold | patients with ADAs who develop neutralizing anti-SCT antibodies (NADAs) [2]: more than 60%

CC(C)C[C@H](NC(=O)[C@H](CCCCN)NC(=O)CNC(=O)[C@H](CC(C)C)NC(=O)[C@@H](NC(=O)[C@H](CO)NC(=O)[C@@H](NC(=O)[C@@H](N)CO)[C@@H](C)O)C(C)C)C(=O)N[C@@H](CO)C(=O)N[C@@H](CCC(N)=O)C(=O)N[C@@H](CCC(=O)O)C(=O)N[C@@H](CC(C)C)C(=O)N[C@@H](Cc1c[nH]cn1)C(=O)N[C@@H](CCCCN)C(=O)N[C@@H](CC(C)C)C(=O)N[C@@H](CCC(N)=O)C(=O)N[C@H](C(=O)N[C@@H](Cc1ccc(O)cc1)C(=O)O)[C@@H](C)O [API SCT(5-22)] (H-STSVLGKLSQELHKLQTY-OH)
pIC50 (HLA DRB1*0701): < 3.00 | pIC50 (HLA DRB1*0901): < 3.00 | pIC50 (HLA DRB1*1501): 4.02 | pIC50 (HLA DRB1*0301): < 3.00 | pIC50 (HLA DRB1*1101): 3.98 | pIC50 (HLA DRB1*0101): 4.95 | pIC50 (HLA DRB1*1301): < 3.00 | pIC50 (HLA DRB1*0401): < 3.00

CC(C)C[C@H](NC(=O)[C@H](CCC(=O)O)NC(=O)[C@H](CCC(N)=O)NC(=O)[C@@H](N)CO)C(=O)N[C@@H](Cc1c[nH]cn1)C(=O)N[C@@H](CCCCN)C(=O)N[C@@H](CC(C)C)C(=O)N[C@@H](CCC(N)=O)C(=O)N[C@H](C(=O)N[C@@H](Cc1ccc(O)cc1)C(=O)N1CCC[C@H]1C(=O)N[C@@H](CCCNC(=N)N)C(=O)N[C@H](C(=O)N[C@@H](CC(N)=O)C(=O)N[C@H](C(=O)O)[C@@H](C)O)[C@@H](C)O)[C@@H](C)O [API SCT(13-27)] (H-SQELHKLQTYPRTNT-OH)
pIC50 (HLA DRB1*0701): < 3.00 | pIC50 (HLA DRB1*0901): < 3.00 | pIC50 (HLA DRB1*1501): 5.64 | pIC50 (HLA DRB1*0301): 4.18 | pIC50 (HLA DRB1*1101): 3.79 | pIC50 (HLA DRB1*0101): 5.48 | pIC50 (HLA DRB1*1301): 5.06 | pIC50 (HLA DRB1*0401): < 3.00
